Test results from PubChem BioAssay AID1259407 (Chemical Carcinogenesis Research Information System (CCRIS), 2018).
Calls of active or inactive are those of the source. The rule behind the calls is not given here.

Tested on: CCRIS mutagenicity, Ames/micronucleus/aberration tests
Assay: CCRIS mutagenicity studies
Settings: Test System: AMES SALMONELLA TYPHIMURIUM
[1] = Strain/Indicator: TA98, Metabolic Activation: NONE, Method: PREINCUBATION
[2] = Strain/Indicator: TA98, Metabolic Activation: RAT, LIVER, S-9, PCB, Method: PREINCUBATION
[3] = Strain/Indicator: TA100, Metabolic Activation: NONE, Method: PREINCUBATION
[4] = Strain/Indicator: TA100, Metabolic Activation: RAT, LIVER, S-9, PCB, Method: PREINCUBATION

For `CC(=O)Nc1ccccc1`, which mutagenic call (Strain/Indicator: TA97, Metabolic Activation: HAMSTER, LIVER, S-9, AROCLOR 1254 (10 OR 30%), Method: PREINCUBATION) is on record?
Its mutagenic call is “inactive; negative”.

And the mutagenic call (Strain/Indicator: TA97, Metabolic Activation: NONE, Method: PREINCUBATION)?
The mutagenic call was “inactive; negative”.

What about the mutagenic call (Strain/Indicator: TA97, Metabolic Activation: RAT, LIVER, S-9, AROCLOR 1254 (10 OR 30%), Method: PREINCUBATION) of the same compound?
Its mutagenic call is “inactive; negative”.

And the mutagenic call (Strain/Indicator: TA98, Metabolic Activation: GUINEA PIG, LIVER, S-9, PCB, Method: PREINCUBATION)?
The mutagenic call was “inactive; negative”.

And the mutagenic call (Strain/Indicator: TA98, Metabolic Activation: HAMSTER, LIVER, S-9, AROCLOR 1254 (10 OR 30%), Method: PREINCUBATION)?
The mutagenic call was “inactive; negative”.

And the mutagenic call (Strain/Indicator: TA98, Metabolic Activation: HAMSTER, LIVER, S-9, PCB, Method: PREINCUBATION)?
The mutagenic call was “inactive; negative”.

What about the mutagenic call (Strain/Indicator: TA98, Metabolic Activation: MOUSE, LIVER, S-9, PCB, Method: PREINCUBATION) of the same compound?
Its mutagenic call is “inactive; negative”.

What about the mutagenic call [1] of the same compound?
The mutagenic call was “inactive; negative”.

And the mutagenic call (Strain/Indicator: TA98, Metabolic Activation: RAT, LIVER, S-9, AROCLOR 1254 (10 OR 30%), Method: PREINCUBATION)?
Its mutagenic call is “inactive; negative”.

What about the mutagenic call [2] of the same compound?
Its mutagenic call is “inactive; negative”.

What about the mutagenic call (Strain/Indicator: TA100, Metabolic Activation: GUINEA PIG, LIVER, S-9, PCB, Method: PREINCUBATION) of the same compound?
Its mutagenic call is “inactive; negative”.

What about the mutagenic call (Strain/Indicator: TA100, Metabolic Activation: HAMSTER, LIVER, S-9, AROCLOR 1254 (10 OR 30%), Method: PREINCUBATION) of the same compound?
Its mutagenic call is “inactive; negative”.

And the mutagenic call (Strain/Indicator: TA100, Metabolic Activation: HAMSTER, LIVER, S-9, PCB, Method: PREINCUBATION)?
Its mutagenic call is “inactive; negative”.

And the mutagenic call (Strain/Indicator: TA100, Metabolic Activation: MOUSE, LIVER, S-9, PCB, Method: PREINCUBATION)?
The mutagenic call was “inactive; negative”.

What about the mutagenic call [3] of the same compound?
The mutagenic call was “inactive; negative”.

What about the mutagenic call (Strain/Indicator: TA100, Metabolic Activation: RAT, LIVER, S-9, AROCLOR 1254 (10 OR 30%), Method: PREINCUBATION) of the same compound?
The mutagenic call was “inactive; negative”.

And the mutagenic call [4]?
Its mutagenic call is “inactive; negative”.

And the mutagenic call (Strain/Indicator: TA1535, Metabolic Activation: HAMSTER, LIVER, S-9, AROCLOR 1254 (10 OR 30%), Method: PREINCUBATION)?
The mutagenic call was “inactive; negative”.

And the mutagenic call (Strain/Indicator: TA1535, Metabolic Activation: NONE, Method: PREINCUBATION)?
Its mutagenic call is “inactive; negative”.

What about the mutagenic call (Strain/Indicator: TA1535, Metabolic Activation: RAT, LIVER, S-9, AROCLOR 1254 (10 OR 30%), Method: PREINCUBATION) of the same compound?
The mutagenic call was “inactive; negative”.

Which mutagenic call [1] does the source give for `CN1CCN(C)CC1` here?
The mutagenic call was “inactive; negative”.

What about the mutagenic call [2] of the same compound?
The mutagenic call was “inactive; negative”.

And the mutagenic call [3]?
The mutagenic call was “inactive; negative”.

And the mutagenic call [4]?
Its mutagenic call is “inactive; negative”.

How did the mutagenic call (Strain/Indicator: TA100, Metabolic Activation: RAT, LIVER, S-9, PCB, Method: STANDARD PLATE) turn out when `Brc1c2ccccc2cc2c1ccc1ccccc12` was run?
Its mutagenic call is “active; positive”.
